# Reference: the supplement of paper PMC11061612
# Columns and labels:
# [1] = system: MEG-01 (Chronic Myelogenous Leukemia); test: combination Emax (second highest fraction inhibited in the dose matrix, 72 h); higher = more inhibition; extreme values may be limits of the assay
# Summary of the method: (§1)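 Bliss excess equals the observed combination effect minus the expected value EA + EB − EA·EB, where EA and EB are the effects of each agent alone. Combination Emax is the second-highest inhibition within the matrix. Inhibition was scaled from CellTiter-Glo 2.0 luminescence, with 0 set by vehicle wells and 1 by blank wells, after 72 hours of two-drug dosing of cells plated in 1536-well plates.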
# D-392MG (Glioblastoma) = test: as above
# Summary of the method: as §1
# [2] = system: U-118-MG (Low Grade Glioma); test: as above
# Summary of the method: as §1
# [3] = system: KG-1 (Acute Myeloid Leukemia); test: as above
# Summary of the method: as §1
# [4] = system: HOP-92 (Non-Small Cell Lung Carcinoma); test: as above
# Summary of the method: as §1
# [5] = system: HCC1143 (Breast Carcinoma); test: as above
# Summary of the method: as §1
# [6] = system: JHH-6 (Hepatocellular Carcinoma); test: as above
# Summary of the method: as §1
# CS1 (Chondrosarcoma) = test: as above
# Summary of the method: as §1
# [7] = system: TC-YIK (Other Solid Carcinomas); test: as above
# Summary of the method: as §1
# [8] = system: FU-OV-1 (Ovarian Carcinoma); test: as above
# Summary of the method: as §1
# A172 (Glioblastoma) = test: as above
# Summary of the method: as §1
# [9] = system: GDM-1 (Acute Myeloid Leukemia); test: as above
# Summary of the method: as §1
# [10] = system: PA-TU-8902 (Pancreatic Carcinoma); test: as above
# Summary of the method: as §1
# [11] = system: SNU-61 (Colorectal Carcinoma); test: as above
# Summary of the method: as §1
# [12] = system: TC-YIK (Other Solid Carcinomas); test: Bliss excess, mean over the matrix (fraction); higher = more synergy
# Summary of the method: as §1
# [13] = system: FU-OV-1 (Ovarian Carcinoma); test: as above
# Summary of the method: as §1
Compound,combination Emax [1],combination Emax (D-392MG (Glioblastoma)),combination Emax [2],combination Emax [3],combination Emax [4],combination Emax [5],combination Emax [6],combination Emax (CS1 (Chondrosarcoma)),combination Emax [7],combination Emax [8],combination Emax (A172 (Glioblastoma)),combination Emax [9],combination Emax [10],combination Emax [11],Bliss excess [12],Bliss excess [13]
"CC(=O)c1c(C)c2cnc(Nc3ccc(N4CCNCC4)cn3)nc2n(C2CCCC2)c1=O [Palbociclib] + Cc1c2c(nn1C)CSCc1cc(n(C)n1)CSc1cc(c3ccccc3c1)OCCCc1c(C(=O)O)n(C)c3c-2c(Cl)ccc13 [AZD5991] (first compound max 10 µM, 7x7, partner max 1 µM)",0.668,0.4,0.322,0.894,0.293,0.287,0.338,0.304,0.547,0.235,0.614,0.824,0.283,0.171,-0.0144,-0.0538
"CS(=O)(=O)CCNCc1ccc(-c2ccc3ncnc(Nc4ccc(OCc5cccc(F)c5)c(Cl)c4)c3c2)o1 [Lapatinib] + C[C@@H](Oc1cc(-c2cnn(C3CCNCC3)c2)cnc1N)c1c(Cl)ccc(F)c1Cl [Crizotinib] (first compound max 10 µM, 7x7, partner max 10 µM)",0.992,0.498,0.491,0.49,0.937,0.875,0.683,0.797,0.957,0.696,0.941,0.913,0.775,0.697,-0.0828,-0.0304
"CC(=O)c1c(C)c2cnc(Nc3ccc(N4CCNCC4)cn3)nc2n(C2CCCC2)c1=O [Palbociclib] + Cn1cnc2c(F)c(Nc3ccc(Br)cc3Cl)c(C(=O)NOCCO)cc21 [Selumetinib] (first compound max 10 µM, 7x7, partner max 10 µM)",0.855,0.262,0.296,0.481,0.458,0.295,0.443,0.408,0.729,0.4,0.425,0.555,0.416,0.447,0.001,0.0004
"C[C@@H](c1ccc2nccn2c1)n1nnc2ncc(-c3cnn(C)c3)nc21 [Savolitinib] + CC1(C)CCC(CN2CCN(c3ccc(C(=O)NS(=O)(=O)c4ccc(NCC5CCOCC5)c([N+](=O)[O-])c4)c(Oc4cnc5[nH]ccc5c4)c3)CC2)=C(c2ccc(Cl)cc2)C1 [Venetoclax] (first compound max 1 µM, 7x7, partner max 1 µM)",0.0651,0.266,0.218,0.38,0.201,0.29,0.0411,0.343,0.108,0.2,0.145,0.515,0.168,0.143,-0.0506,-0.0389
"Cn1cnc2c(F)c(Nc3ccc(Br)cc3Cl)c(C(=O)NOCCO)cc21 [Selumetinib] + CC(C)n1c(=O)n(C)c2cnc3cc(F)c(-c4ccc(OCCCN5CCCCC5)nc4)cc3c21 [AZD1390] (first compound max 10 µM, 7x7, partner max 0.3 µM)",0.671,0.145,0.178,0.307,0.402,0.297,0.168,0.256,0.466,0.431,0.257,0.165,0.307,0.389,0.0473,-0.0109
"CC(=O)c1c(C)c2cnc(Nc3ccc(N4CCNCC4)cn3)nc2n(C2CCCC2)c1=O [Palbociclib] + CC1(C)CCC(CN2CCN(c3ccc(C(=O)NS(=O)(=O)c4ccc(NCC5CCOCC5)c([N+](=O)[O-])c4)c(Oc4cnc5[nH]ccc5c4)c3)CC2)=C(c2ccc(Cl)cc2)C1 [Venetoclax] (first compound max 10 µM, 7x7, partner max 1 µM)",0.484,0.223,0.229,0.85,0.145,0.129,0.227,0.354,0.534,0.175,0.457,0.892,0.245,0.152,-0.0713,-0.0496
"Cn1cnc2c(F)c(Nc3ccc(Br)cc3Cl)c(C(=O)NOCCO)cc21 [Selumetinib] + CCN(CCO)CCCOc1ccc2c(Nc3cc(CC(=O)Nc4cccc(F)c4)[nH]n3)ncnc2c1 [AZD2811] (first compound max 10 µM, 7x7, partner max 1 µM)",0.788,0.197,0.287,0.392,0.495,0.409,0.318,0.266,0.874,0.405,0.416,0.861,0.445,0.486,-0.0495,0.0176
